How the values were obtained:
Assay type in all cases: cell-based
[1] = target: T1, M1 muscarinic receptor (Homo sapiens, UniProt P11229); assay: Functional mobilization of intracellular calcium (FLIPR) in CHO cells expressing M1; conditions: for M1 Activity: CHO cells expressing M1, FLIPR calcium assay; for Emax: CHO, 100% efficacy = maximum response obtained with the Carbachol control
T1 construct: expressed in transfected cells; host or cells: CHO (M1-CHO)
T1 sequence (P11229 1-460): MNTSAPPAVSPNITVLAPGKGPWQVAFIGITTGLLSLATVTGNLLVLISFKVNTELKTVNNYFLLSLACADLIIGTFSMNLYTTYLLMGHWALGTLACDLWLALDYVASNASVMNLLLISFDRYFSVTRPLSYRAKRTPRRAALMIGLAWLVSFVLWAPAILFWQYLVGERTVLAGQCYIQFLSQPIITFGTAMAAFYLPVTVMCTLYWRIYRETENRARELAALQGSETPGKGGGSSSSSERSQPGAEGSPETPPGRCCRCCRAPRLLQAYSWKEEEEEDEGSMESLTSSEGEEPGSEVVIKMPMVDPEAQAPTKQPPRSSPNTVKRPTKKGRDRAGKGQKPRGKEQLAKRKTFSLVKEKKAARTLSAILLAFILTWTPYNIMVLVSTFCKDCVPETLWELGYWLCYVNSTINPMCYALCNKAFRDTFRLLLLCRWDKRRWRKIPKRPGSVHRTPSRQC
In short: (§1)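 Calcium flux is read on FLIPR over 60 sec at 488/540 nm in muscarinic-receptor CHO lines. Antagonist mode adds carbachol at EC80 after 15 min compound preincubation or with simultaneous co-application. Agonist mode adds compound alone. Cells carry Fluo-3 or Calcium 3 dye in probenecid-containing pH 7.4 buffer, 0.5% DMSO final.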

[2] = target: T2, M2 muscarinic receptor (Homo sapiens, UniProt P08172); assay: Functional mobilization of intracellular calcium (FLIPR) in CHO cells expressing M2; conditions: for M2 Activity: CHO cells expressing M2, FLIPR calcium assay; for Emax: CHO, 100% efficacy = maximum response obtained with the Carbachol control
T2 construct: expressed in transfected cells; host or cells: CHO (M2-CHO)
T2 sequence (P08172 1-466): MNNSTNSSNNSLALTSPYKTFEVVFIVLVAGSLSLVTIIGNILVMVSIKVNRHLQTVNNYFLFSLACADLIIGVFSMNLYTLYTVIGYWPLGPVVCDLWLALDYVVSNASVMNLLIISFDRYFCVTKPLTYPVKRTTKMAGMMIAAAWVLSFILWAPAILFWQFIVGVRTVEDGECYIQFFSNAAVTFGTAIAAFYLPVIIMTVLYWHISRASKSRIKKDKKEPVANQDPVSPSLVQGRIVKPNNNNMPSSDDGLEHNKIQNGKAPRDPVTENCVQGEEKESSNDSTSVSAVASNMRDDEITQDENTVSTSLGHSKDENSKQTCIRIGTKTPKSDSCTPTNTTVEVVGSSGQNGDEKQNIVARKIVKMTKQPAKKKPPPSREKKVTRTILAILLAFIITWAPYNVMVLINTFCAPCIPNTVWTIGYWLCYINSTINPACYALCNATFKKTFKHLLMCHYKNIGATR
In short: as §1

[3] = target: T3, M3 muscarinic receptor (Homo sapiens, UniProt P20309); assay: Functional mobilization of intracellular calcium (FLIPR) in CHO cells expressing M3; conditions: for M3 Activity: CHO cells expressing M3, FLIPR calcium assay; for Emax: CHO, 100% efficacy = maximum response obtained with the Carbachol control
T3 construct: expressed in transfected cells; host or cells: CHO (M3-CHO)
In short: as §1

[4] = target: T4, M4 muscarinic receptor (Homo sapiens, UniProt P08173); assay: Functional mobilization of intracellular calcium (FLIPR) in CHO cells expressing M4; conditions: for M4 Activity: CHO cells expressing M4, FLIPR calcium assay; for Emax: CHO, 100% efficacy = maximum response obtained with the Carbachol control
T4 construct: expressed in transfected cells; host or cells: CHO (M4-CHO)
T4 sequence (P08173 1-479): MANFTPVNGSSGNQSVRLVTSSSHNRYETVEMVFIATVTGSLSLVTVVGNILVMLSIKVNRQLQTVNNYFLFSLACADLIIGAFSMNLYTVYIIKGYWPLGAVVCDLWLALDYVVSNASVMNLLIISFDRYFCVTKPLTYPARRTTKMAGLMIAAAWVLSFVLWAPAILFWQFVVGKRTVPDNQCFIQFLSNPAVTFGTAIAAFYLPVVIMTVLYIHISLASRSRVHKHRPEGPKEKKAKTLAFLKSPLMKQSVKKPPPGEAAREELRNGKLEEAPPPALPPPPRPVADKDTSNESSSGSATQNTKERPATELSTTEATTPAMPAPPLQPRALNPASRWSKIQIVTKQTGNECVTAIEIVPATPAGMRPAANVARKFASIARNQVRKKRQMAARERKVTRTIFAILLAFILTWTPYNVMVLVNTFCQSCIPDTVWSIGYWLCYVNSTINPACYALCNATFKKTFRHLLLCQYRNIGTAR
In short: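 Read-out: FLIPR fluorescence (ex 488, em 540 nm) over 60 s. Recombinant CHO lines are dye-loaded (Fluo-3 AM or Calcium 3) with 1 mM probenecid. For antagonist mode, compound is pre-incubated 15 min, or co-applied, then carbachol is added at 3× EC80 per subtype.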

T3 sequence (P20309 whole entry): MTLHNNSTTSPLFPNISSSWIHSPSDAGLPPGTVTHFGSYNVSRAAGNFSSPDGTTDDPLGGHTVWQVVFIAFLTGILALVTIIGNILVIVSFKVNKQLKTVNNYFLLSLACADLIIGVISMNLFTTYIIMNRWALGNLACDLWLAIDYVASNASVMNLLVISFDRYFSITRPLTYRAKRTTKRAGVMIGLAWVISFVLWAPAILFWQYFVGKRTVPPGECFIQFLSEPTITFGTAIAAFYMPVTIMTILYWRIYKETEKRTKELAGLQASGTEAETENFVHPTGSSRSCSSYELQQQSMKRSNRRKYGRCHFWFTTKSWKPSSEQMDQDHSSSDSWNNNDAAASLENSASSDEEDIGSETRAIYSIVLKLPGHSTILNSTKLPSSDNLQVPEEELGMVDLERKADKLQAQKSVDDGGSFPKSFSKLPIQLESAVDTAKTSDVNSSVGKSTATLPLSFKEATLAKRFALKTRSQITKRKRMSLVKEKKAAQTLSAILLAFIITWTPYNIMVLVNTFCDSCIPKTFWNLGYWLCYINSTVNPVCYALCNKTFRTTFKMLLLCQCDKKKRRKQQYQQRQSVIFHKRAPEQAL

SMILES | M1 Activity [1] | Emax [1] [%] | M2 Activity [2] | Emax [2] [%] | M3 Activity [3] | Emax [3] [%] | M4 Activity [4] | Emax [4] [%]
CC(C)(C)CCN1CCC2(CC[C@H](NC(=O)CCCN3CCCC3=O)c3ccccc32)CC1 [compound 197] | +++ (activity was measured to be less than 2.0 μM) | 25 to 100 | +++ (activity was measured to be less than 2.0 μM) | 25 to 100 | + (activity was measured to be greater than 5.0 μM) | < 25 | +++ (activity was measured to be less than 2.0 μM) | 25 to 100
CCN(C(=O)Cc1ccccn1)[C@H]1CCC2(CCN(CCC(C)(C)C)CC2)c2ccccc21 [compound 198] | +++ (activity was measured to be less than 2.0 μM) | 25 to 100 | ++ (activity was measured to be from 2.0 μM to 5.0 μM) | < 25 | + (activity was measured to be greater than 5.0 μM) | < 25 | +++ (activity was measured to be less than 2.0 μM) | 25 to 100
CCOC(=O)N(C)[C@H]1CCC2(CCN(CCC(C)(C)C)CC2)c2ccccc21 [compound 199] | ++ (activity was measured to be from 2.0 μM to 5.0 μM) | < 25 | + (activity was measured to be greater than 5.0 μM) | < 25 | + (activity was measured to be greater than 5.0 μM) | < 25 | +++ (activity was measured to be less than 2.0 μM) | 25 to 100
CC(=O)NCC(=O)N[C@@H]1CCC2(CCN(CCC(C)(C)C)CC2)c2cc(F)ccc21 [compound 200] | +++ (activity was measured to be less than 2.0 μM) | 25 to 100 | +++ (activity was measured to be less than 2.0 μM) | 25 to 100 | + (activity was measured to be greater than 5.0 μM) | < 25 | +++ (activity was measured to be less than 2.0 μM) | 25 to 100
CC(C)(C)CCN1CCC2(CC[C@H](NC(=O)C3CCOCC3)c3ccc(F)cc32)CC1 [compound 202] | +++ (activity was measured to be less than 2.0 μM) | 25 to 100 | + (activity was measured to be greater than 5.0 μM) | < 25 | + (activity was measured to be greater than 5.0 μM) | < 25 | +++ (activity was measured to be less than 2.0 μM) | 25 to 100
CC(C)(C)CCN1CCC2(CC[C@H](NC(=O)[C@H]3CCC(=O)N3)c3ccc(F)cc32)CC1 [compound 203] | +++ (activity was measured to be less than 2.0 μM) | 25 to 100 | +++ (activity was measured to be less than 2.0 μM) | 25 to 100 | + (activity was measured to be greater than 5.0 μM) | < 25 | +++ (activity was measured to be less than 2.0 μM) | 25 to 100
CC(=O)N[C@H]1CCC2(CCN(C(C)CC(C)(C)C)CC2)c2ccccc21 (stereo partly drawn) [compound 204] | +++ (activity was measured to be less than 2.0 μM) | 25 to 100 | + (activity was measured to be greater than 5.0 μM) | < 25 | + (activity was measured to be greater than 5.0 μM) | < 25 | +++ (activity was measured to be less than 2.0 μM) | 25 to 100
CC(=O)CCC(=O)N[C@@H]1CCC2(CCN(CCC(C)(C)C)CC2)c2ccccc21 [compound 205] | +++ (activity was measured to be less than 2.0 μM) | 25 to 100 | + (activity was measured to be greater than 5.0 μM) | < 25 | + (activity was measured to be greater than 5.0 μM) | < 25 | +++ (activity was measured to be less than 2.0 μM) | 25 to 100
CC(C)CCN1CCC2(CC[C@H](N(C)C(=O)N(C)C)c3ccccc32)CC1 [compound 206] | + (activity was measured to be greater than 5.0 μM) | < 25 | + (activity was measured to be greater than 5.0 μM) | < 25 | + (activity was measured to be greater than 5.0 μM) | < 25 | +++ (activity was measured to be less than 2.0 μM) | 25 to 100
CCn1ccc(C(=O)N[C@H]2CCC3(CCN(CCC(C)(C)C)CC3)c3ccccc32)n1 [compound 207] | ++ (activity was measured to be from 2.0 μM to 5.0 μM) | 25 to 100 | + (activity was measured to be greater than 5.0 μM) | < 25 | + (activity was measured to be greater than 5.0 μM) | < 25 | +++ (activity was measured to be less than 2.0 μM) | 25 to 100
CC(C)COC(=O)N(C)[C@H]1CCC2(CCN(CCC(C)(C)C)CC2)c2ccccc21 [compound 208] | +++ (activity was measured to be less than 2.0 μM) | 25 to 100 | +++ (activity was measured to be less than 2.0 μM) | < 25 | + (activity was measured to be greater than 5.0 μM) | < 25 | +++ (activity was measured to be less than 2.0 μM) | 25 to 100
CC(C)(C)CCN1CCC2(CC[C@H](NC(=O)C3CCOCC3)c3ccccc32)CC1 [compound 209] | +++ (activity was measured to be less than 2.0 μM) | 25 to 100 | + (activity was measured to be greater than 5.0 μM) | < 25 | + (activity was measured to be greater than 5.0 μM) | < 25 | +++ (activity was measured to be less than 2.0 μM) | 25 to 100
CCN(C(=O)CCC(C)=O)[C@@H]1CCC2(CCN(CCC(C)(C)C)CC2)c2ccccc21 [compound 210] | +++ (activity was measured to be less than 2.0 μM) | < 25 | + (activity was measured to be greater than 5.0 μM) | < 25 | + (activity was measured to be greater than 5.0 μM) | < 25 | +++ (activity was measured to be less than 2.0 μM) | 25 to 100
CCN(C(C)=O)[C@H]1CCC2(CCN(CCC(C)(C)C)CC2)c2ccccc21 [compound 211] | +++ (activity was measured to be less than 2.0 μM) | 25 to 100 | + (activity was measured to be greater than 5.0 μM) | < 25 | + (activity was measured to be greater than 5.0 μM) | < 25 | +++ (activity was measured to be less than 2.0 μM) | 25 to 100
COCCC(=O)N[C@@H]1CCC2(CCN(CCC(C)(C)C)CC2)c2cc(F)ccc21 [compound 212] | +++ (activity was measured to be less than 2.0 μM) | 25 to 100 | + (activity was measured to be greater than 5.0 μM) | < 25 | + (activity was measured to be greater than 5.0 μM) | < 25 | +++ (activity was measured to be less than 2.0 μM) | 25 to 100
